The structures appear in SMILES notation.

Holding throughout (format): physicochemical
Data set [1] in a line: thermodynamic investigations (thermomicroscopy, X-ray powder diffractometry, DSC, solubility tests) of crystal modifications. To be noted: for thermodynamic stability: comparison of the crystal modifications A/A′, B and C. The source says: The modification A or A′ has significant advantages compared with the modification B and compared with the modification C.
Data set [2] in a line: dissolution rate in water. To be noted: comparison between modifications.
Data set [3] in a line: dissolution rate in gastric fluid. The conditions noted are these: comparison between modifications.

With `NC(=O)c1cn(Cc2c(F)cccc2F)nn1` [modification C, 1-(2,6-difluorobenzyl)-1H-1,2,3-triazole-4-carboxamide], the “conversion of the crystals into modification B” value in data set [1] (at as low as room temperature) is recorded as “within a few weeks”. Further, the thermodynamic stability result in data set [1] (listed as Modification C) is “the least stable of the three modifications”. For the same compound, the “conversion into other modifications” value in data set [1] (depending on experimental conditions) was “converted either into the modification A or A′ or into the modification B”.
In the case of `NC(=O)c1cn(Cc2c(F)cccc2F)nn1` [modification A′, 1-(2,6-difluorobenzyl)-1H-1,2,3-triazole-4-carboxamide], the thermodynamic stability entry in data set [1] (listed as A′) was “substantially better thermodynamic stability than the modifications B and C”. For the same compound, the dissolution rate entry in data set [2] and in data set [3] was “slower dissolution rate” throughout.
As for `NC(=O)c1cn(Cc2c(F)cccc2F)nn1` [modification B, 1-(2,6-difluorobenzyl)-1H-1,2,3-triazole-4-carboxamide], the dissolution rate entry in data set [2] and in data set [3] was “substantially faster dissolution rate” throughout.
For `NC(=O)c1cn(Cc2c(F)cccc2F)nn1` [modification A, 1-(2,6-difluorobenzyl)-1H-1,2,3-triazole-4-carboxamide], the thermodynamic stability entry in data set [1] is “substantially better thermodynamic stability than the modifications B and C”. In addition, the dissolution rate entry in data set [2] and in data set [3] was “slower dissolution rate” throughout.

For the origin of these results see patent publication US7750028B2, “Crystal modifications of 1-(2,6-difluorobenzyl)-1H-1, 2,3-triazole-4-carboxamide” (Novartis AG, priority 1997, dated 2010).
